Values of other authors as cited in patent US20110275591A1, “COCKTAIL FOR MODULATION OF ALZHEIMER'S DISEASE” (Concourse Health Sciences LLC, priority 2004, published 2011).

Experiments:
[1] = system: primary neurons of rat cerebral cortex; settings: MTT and propidium iodide assays
SAMP8 mouse = settings: for cognition in T-maze footshock avoidance paradigm and lever press appetitive task: chronic administration
[2] = system: children with autistic spectrum disorders; settings: 8-week study; all p<0.05
[3] = system: patients with probable AD; settings: after 3 and 6 months of treatment; significant differences only for a subset of cognitive tasks
[4] = system: Alzheimer transgenic mice; settings: dietary curcumin
[5] = system: cultured hippocampal neurons
[6] = co-treatment during 48-hour Aβ exposure, vs controls with no EGCG

O=C(O)CCCCC1CCSS1 (stereo not drawn) [ALA, Alpha lipoic acid]
protection against cytotoxicity induced by Aβ peptide ([1]; Aβ peptide 30 microM): protected cortical neurons against cytotoxicity
protection against cytotoxicity induced by H2O2 ([1]; H2O2 100 microM): protected cortical neurons against cytotoxicity
indexes of oxidative stress (protein carbonyls, TBARS, W/S ratio of MAL-6) (SAMP8 mouse; 12-month-old SAMP8 mice): reversed all three indexes of oxidative stress
cognition in T-maze footshock avoidance paradigm and lever press appetitive task (SAMP8 mouse; 12-month-old SAMP8 mice): improved cognition

NCCC(=O)N[C@@H](Cc1cnc[nH]1)C(=O)O [L-carnosine, b-alanyl-L-histidine]
Gilliam Autism Rating Scale and Receptive One-Word Picture Vocabulary test [2]: statistically significant improvements

CC(=O)N[C@@H](CS)C(=O)O [NAC, N-Acetylcysteine, reference compound]
efficacy outcome measures (cognitive tasks) [3]: beneficial results on nearly every outcome measure
cognition in T-maze footshock avoidance paradigm and lever press appetitive task (SAMP8 mouse; 12-month-old SAMP8 mice): improved cognition
blood-brain barrier passage (SAMP8 mouse; SAMP8 mice): crossed the blood-brain barrier and accumulated in the brain

COc1cc(/C=C/C(=O)CC(=O)/C=C/c2ccc(O)c(OC)c2)ccc1O [curcumin, Curcumin]
levels of interleukin-1 beta [4]: decreased levels
levels of oxidized proteins [4]: decreased levels
microgliosis [4]: suppression
lipid peroxidation products (indicators of oxidative stress) (diabetic rats; curcumin fed rats): significant reduction
accumulation of advanced glycation endproducts (diabetic rats; dietary curcumin 200 mg/kg body weight, vs control diabetic rats without curcumin): prevents the accumulation

Epigallocatechin-3-gallate [EGCG]
cell survival ([5]; Aβ-exposed neurons, vs controls): increased survival
levels of caspase C [5, 6]: decreased
levels of malondiadehyde [5, 6]: decreased
